We go through nine molecules from PubChem BioAssay (NCI).

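A five-concentration, 48-hour dose response in 96-well plates underlies each endpoint, interpolated linearly between surrounding concentrations. TGI denotes the concentration required for complete inhibition of growth.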

Assay in all cases: inhibition of tumour cell growth, NCI panel, 48 h
For assay [1], the system named is UO-31 renal.
Assay [2] has as its system SK-MEL-2 melanoma.
For assay [3], the system named is CCRF-CEM leukemia.
The test system of assay [4] is HL-60(TB) leukemia.
Assay [5] deals with OVCAR-4 ovarian.
Assay [6] concerns SF-295 CNS.
Assay [7] relates to NCI-H23 lung.
In assay [8] the test system is NCI/ADR-RES ovarian.
Assay [9] relates to SF-539 CNS.
For assay [10], the system named is KM12 colon.
Assay [11] concerns K-562 leukemia.
The subject of assay [12] is HT29 colon.
Assay [13] relates to HCT-116 colon.
Assay [14] has as its system OVCAR-3 ovarian.
For assay [15], the system named is SF-268 CNS.

Take `c1ccc2c(c1)nn1c3ccc4nonc4c3[n-][n+]21`: the TGI in assay [1], in assay [2], in assay [3], in assay [4], in assay [5] and in assay [6] was more than 100 µM throughout. Further, the TGI in assay [7], in assay [8], in assay [9], in assay [10], in [11] and in [12] was more than 100 µM each time. Also, the TGI in assay [13] and in [14] was more than 100 µM in each case.
`O=S(=O)(O)c1cc(S(=O)(=O)O)c2cc(N=Nc3c(O)ccc4ccccc34)ccc2c1`: the TGI in assay [1], in assay [2], in assay [3], in assay [4], in assay [5] and in assay [6] was more than 100 µM throughout. In addition, the TGI in assay [7], in assay [8], in assay [10], in [11], in [15] and in [12] was more than 100 µM in each case. For the same molecule, the TGI in assay [13] and in [14] was more than 100 µM each time.
Turning to `O=c1[nH]nc(-c2ccccc2)n1/N=C/c1ccco1`, the TGI in assay [1], in assay [2], in assay [3], in assay [4], in assay [5] and in assay [6] was more than 100 µM throughout. The TGI in [7], in assay [8], in assay [9], in [10], in assay [15] and in assay [12] was more than 100 µM in each case. In addition, the TGI in assay [13] and in [14] was more than 100 µM in each case.
`O=C(c1cccc2ccccc12)C1S(=O)(=O)OCCOS1(=O)=O`: the TGI in assay [1] is more than 100 µM; in assay [2], more than 100 µM; in [3] it was more than 100 µM; in assay [4], more than 100 µM; in [5] it was more than 100 µM; in assay [6] it was 0.0412 µM. In addition, the TGI in [7], in [8], in assay [10], in [11], in assay [12] and in assay [13] was more than 100 µM throughout. Also, in [14], the TGI is more than 100 µM.
Regarding `Cc1csc(NNC(N)=O)n1`, the TGI in assay [1], in assay [2], in assay [3], in assay [4], in assay [5] and in [6] was more than 100 µM throughout. Further, the TGI in [7], in [8], in [9], in assay [10], in [15] and in [12] was more than 100 µM throughout. Further, the TGI in assay [13] and in assay [14] was more than 100 µM in each case.
Consider `C[C@@H]1[C@H](O)CC2=C(CC[C@@H](O)C2(C)C)[C@@]1(CO)CCc1ccoc1`, for which the TGI in assay [1], in [2], in assay [3], in assay [4], in [5] and in assay [6] was more than 50 µM in each case. Further, the TGI in assay [7], in assay [8], in assay [9], in assay [10], in assay [11] and in assay [12] was more than 50 µM each time. The TGI in assay [13] and in assay [14] was more than 50 µM throughout.
Turning to `Cc1c2n(c3ccccc13)S(=O)(=O)c1ccccc1-2`, the TGI in assay [1] was 41.6 µM; in assay [3], more than 100 µM; in assay [4] it was more than 100 µM; in assay [5], more than 100 µM; in assay [6], 53.2 µM; in [7], more than 100 µM. Moreover, the TGI in assay [8] was more than 100 µM; in assay [10] it was more than 100 µM; in assay [11] it was more than 100 µM; in assay [12], 35.6 µM; in assay [13], more than 100 µM; in assay [14] it was more than 100 µM.
`COCCOC(=O)NCn1cc(-c2ccccc2)nn1`: the TGI in assay [2], in assay [3], in assay [4], in [5], in assay [6] and in assay [7] was more than 100 µM throughout. The TGI in assay [8], in assay [9], in assay [10], in [11], in [12] and in assay [13] was more than 100 µM in each case.
For `O=C1NC(N2CCCC(CO)C2)=N/C1=C\c1ccccc1` (stereo unspecified), the TGI in assay [1], in assay [2], in assay [3], in assay [4], in assay [5] and in assay [6] was more than 100 µM throughout. Also, the TGI in [7], in assay [8], in assay [9], in [10], in assay [15] and in [12] was more than 100 µM each time. Moreover, the TGI in assay [13] and in [14] was more than 100 µM throughout.
